Source: patent publication US20160075682A1, “INHIBITORS OF NICOTINAMIDE PHOSPHORIBOSYLTRANSFERASE, COMPOSITIONS, PRODUCTS AND USES THEREOF” (UNIVERSITÀ DEGLI STUDI DEL PIEMONTE ORIENTALE "AMEDEO …, priority 2013, published 2016)

Tests used:
[1] = test system: DNBS-induced colitis in BALB/c mice; test: Experimental colitis induced by DNBS; type: in vivo; details: i.p.
Description: Animal work was authorized by the local ethical committee for animal studies (Università del Piemonte Orientale). BALB/c mice (Harlan Nossan, Milan, Italy) were anesthetized by enflurane. Dinitrobenzene sulfonic acid (DNBS; 4 mg in 100 μl of 50% ethanol) was injected into the rectum through a catheter inserted 4.5 cm proximally to the anus. Carrier alone (100 μl of 50% ethanol) was administered in control experiments. Thereafter, the animals were kept for 15 minutes in a Trendelenburg position to avoid reflux. Treatment with either solvent alone or drugs was done immediately after induction and thereafter twice a day. […] On Day 4, the animals were weighed and anaesthetized with chloral hydrate, and the abdomen was opened by a midline incision. The colon was removed, freed from surrounding tissues, opened along the antimesenteric border, rinsed, weighed, and processed for histology, biochemical measurements and immunohistochemistry. Colon damage (macroscopic damage score) was evaluated and scored by two independent observers according to the following criteria: 0, no damage; 1, localized hyperemia without ulcers; 2, linear ulcers with no significant inflammation; 3, linear ulcers with inflammation at one site; 4, two or more major sites of inflammation and ulceration extending >1 cm along the length of the colon; and 5-8, one point is added for each centimeter of ulceration beyond an initial 2 cm. Biochemical and histological analysis also included TNFalpha measurements and myeloperoxidase (MPO) measurements by ELISA assay, and VEGF, NAMPT, COX-2 measurements by immunoblotting. (Esposito E, Mazzon E, Paterniti I, Dal Toso R, Pressi G, Caminiti R, Cuzzocrea S. PPAR-alpha Contributes to the Anti-Inflammatory Activity of Verbascoside in a Model of Inflammatory Bowel Disease in Mice. PPAR Res. 2010; 2010:917312).
(§1) As previously described, the colon of DNBS- or dextran treated animals was removed after the induction of colitis. Compounds of formula (I) were administered intraperitoneally (i.p.).

[2] = test system: SH-SY5Y, HeLa; test: MTT cell proliferation assay and trypan blue count (cell viability); type: cell-based; details: cells treated for 48 and 72 hours; read-out: IC50 values (inhibition of cellular proliferation, MTT assay and trypan blue assay)
Description: Cell based assays were used to evaluate the possible cytotoxic effects of some compounds. To measure cytotoxic effects two different methods were used, a MTT cell proliferation assay and trypan blue count.
The Trypan blue assay is used to determine the number of viable cells present in a cell suspension. […] Briefly, 8×10^5 cells (SH-SY5Y, HeLa; obtained from ATCC, LGC standards, Sesto San Giovanni) were seeded in 24-well plates and treated for 48 and 72 hours. After the treatments, cells were stained with trypan blue and counted.
To analyze cell viability was used the colorimetric 3-(4,5-dimethylthiazol-2-yl)-2,5-diphenyltetrazolium bromide (MTT) method. The assay is based on the cleavage of the yellow tetrazolium salt MTT to purple formazan crystals by metabolic active cells. Since reduction of MTT can only occur in metabolically active cells, the level of activity is a measure of the viability of cells and conversely the cytotoxic effects of various treatments. Briefly, 8×10^5 cells (SH-SY5Y, code number CRL-2266; and HeLa, code number CCL-2) were seeded in 24-well plates and treated for 48 and 72 hours. Compounds were dissolved in DMSO and were added to the cells to give a final DMSO concentration no greater than 0.5%. Cells were washed once in Locke buffer and 300 μl of MTT (250 μg/ml in Locke buffer) were added before returning the cells to the incubator for 1 h to allow the formation of the purple formazan crystals. After 1 h, 600 μl of isopropanol/0.1 M HCl were added to each well, and the absorbance was read at 570 nm in a plate reader (Victor3V, PerkinElmer Life Sciences). For some compounds a dose response curve and IC50 for the effects on cell viability and proliferation were calculated. Cell lines used were originally purchased from ATCC (LGC standards. Sesto San Giovanni).
To evaluate the ability of each compound to inhibit cellular proliferation, cells were seeded in 24-well plates and treated for 48 and 72 hours. After the treatments the MTT assay and trypan blue assay were performed.

[3] = target: T1, NAMPT (Homo sapiens, UniProt P43490); test: Direct inhibition of NAMPT enzymatic activity (Cyclex NAMPT colorimetric Assay Kit); type: biochemical; details: as assessed with a cycling assay
T1 construct: endogenous in cells; host or cells: SH-SY5Y and HeLa
Description: Determination of the direct activity of compounds on NAMPT was performed using a commercial kit, Cyclex NAMPT colorimetric Assay Kit.

[4] = test system: Dextran-induced colitis in C57/BJ6 mice; test: Experimental colitis induced by dextran sulfate sodium (DSS); type: in vivo; details: i.p., doses of between 20 mg/Kg and 500 mg/Kg
Description: Animal work was authorized by the local ethical committee for animal studies (Università del Piemonte Orientale). Colitis was induced in C57/BJ6 mice (Harlan Nossan, Milan, Italy) by addition of DSS (2%) to their daily drinking water for 7 days followed by a 3-day recovery period without DSS. The severity of colitis was assessed using these set of criteria: (1) clinical index (daily changes in body weight; diarrhea and rectal bleeding); (2) macroscopic evidence of colitis (shortening of colon length). On day 10 of the experiment, animals were sacrificed. Treatments were performed with either solvent alone or drugs once a day for the entire duration of the experiments from day 1 to day 7. The colon lengths were measured and colon tissues were harvested for biochemical measurements, histopathological assessment and scoring. (Tang Y, Preuss F, Turek F W, Jakate S, Keshavarzian A. Sleep deprivation worsens inflammation and delays recovery in a mouse model of colitis. Sleep Med. 2009 June; 10(6):597-603).
as §1

[5] = DNBS-treated mice, between 20 mg/Kg and 500 mg/Kg, compared to untreated colitis mice

T1 sequence (P43490 whole entry): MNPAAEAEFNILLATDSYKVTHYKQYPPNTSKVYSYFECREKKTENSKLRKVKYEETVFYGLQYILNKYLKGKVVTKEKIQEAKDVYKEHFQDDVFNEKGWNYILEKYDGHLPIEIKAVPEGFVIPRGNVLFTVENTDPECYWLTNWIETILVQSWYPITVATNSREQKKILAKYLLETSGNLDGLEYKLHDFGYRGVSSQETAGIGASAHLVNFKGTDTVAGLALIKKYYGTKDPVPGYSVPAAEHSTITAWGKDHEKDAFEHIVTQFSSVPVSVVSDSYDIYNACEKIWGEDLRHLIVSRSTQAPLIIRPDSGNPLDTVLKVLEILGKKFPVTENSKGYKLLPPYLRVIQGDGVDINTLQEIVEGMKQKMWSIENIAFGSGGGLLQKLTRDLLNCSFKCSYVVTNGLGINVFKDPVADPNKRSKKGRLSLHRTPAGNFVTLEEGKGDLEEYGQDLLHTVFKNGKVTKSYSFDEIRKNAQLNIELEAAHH

IC50 [2]: < 300 nM | inhibition of the enzymatic activity of NAMPT [3]: able to inhibit
Compound: O=C(O)c1ccccc1-c1ccccc1C(=O)NCCCCCCCn1cc(-c2cccnc2)nn1 [2′-((7-(4-(pyridin-3-yl)-1H-1,2,3-triazol-1-yl)heptyl)carbamoyl)-[1,1′-biphenyl]-2-carboxylic acid]
MPO in the colon [1, 5]: able to reduce | NAMPT in the colon [1, 5]: able to reduce | TNFalpha in the colon [1, 5]: able to reduce | VEGF in the colon [1, 5]: able to reduce | protection from DNBS-induced colitis as assessed by the macroscopic damage score ([1]; doses of between 20 mg/Kg and 500 mg/Kg): able to protect | protection from Dextran-induced colitis as assessed by the macroscopic damage score [4]: able to protect
